For one assay, the target named is T1, human secreted PLA2 (Homo sapiens, UniProt P14555).
T1 sequence (P14555 21-144): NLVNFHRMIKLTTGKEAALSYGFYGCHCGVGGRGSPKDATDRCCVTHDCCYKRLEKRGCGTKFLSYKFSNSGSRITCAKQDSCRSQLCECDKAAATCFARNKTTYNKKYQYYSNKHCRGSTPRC
Kind of assay: chromogenic assay of recombinant human secreted phospholipase A2 inhibition (Assay Example 1). In kind it is biochemical. The following applies: mean of 3-5 tests; 40° C., 30 minutes, pH 7.5, 405 nanometers; read-out: Inhibition of human secreted PLA2 IC50 ± mean deviation (3-5 tests). The source says:
The assay described herein has been adapted for high volume screening using 96 well microtiter plates. A general description of this assay method is found in the article, "Analysis of Human Synovial Fluid Phospholipase A2 on Short Chain Phosphatidylcholine-Mixed Micelles: Development of a Spectrophotometric Assay Suitable for a Microtiterplate Reader", by Laure J. Reynolds, Lori L. […] Reagents, the disclosure of which is incorporated herein by reference. REACTION BUFFER CaCl2.2H20 (1.47 g/L) KCl (7.455 g/L) Bovine Serum Albumin (fatty acid free) (1 g/L) (Sigma A-7030, product of Sigma Chemical Co. St. Louis Mo., USA) TRIS HCl (3.94 g/L) pH 7.5 (adjust with NaOH) ENZYME BUFFER […] 0.2 NaCl Adjust pH to 4.5 with acetic acid DTNB […] RACEMIC DIHEPTANOYL THIO - PC […] TRITON X-100™ prepare at 6.249 mg/ml in reaction buffer to equal […]. REACTION MIXTURE A measured volume of racemic dipheptanoyl thio PC supplied in chloroform at a concentration of 100 mg/ml is taken to dryness and redissolved in 10 millimolar TRITON X-100™ nonionic detergent aqueous solution. Reaction Buffer is added to the solution, then DTNB to give the Reaction Mixture. The reaction mixture thus obtained contains 1 mM diheptanoly thio-PC substrate, 0.29 mM Triton X-100™ detergent, and 0.12 mM DTMB in a buffered aqueous solution at pH 7.5. Assay Procedure: 1. Add 0.2 ml reaction mixture to all wells; 2. Add 10 ul test compound (or solvent blank) to appropriate wells, mix 20 seconds; 3. Add 50 nanograms of sPLA2 (10 microliters) to appropriate wells; 4. Incubate plate at 40° C. for 30 minutes; […] Read absorbance of wells at 405 nanometers with an automatic plate reader. All compounds were tested in triplicate. Typically, compounds were tested at a final concentration of 5 ug/ml. […] Lack of color development at 405 nanometers evidenced inhibition. Compounds initially found to be active were reassayed to confirm their activity and, if sufficiently active, IC50 values were determined. […] In all cases, % inhibition measured at 405 nanometers generated by enzyme reactions containing inhibitors relative to the uninhibited control reactions was determined. Each sample was titrated in triplicate and result values were averaged for plotting and calculation of IC50 values. […] IC50 values were determined at least three times for each compound tested.

Another assay addresses T2, sPLA2 contraction (Homo sapiens, UniProt P14555).
T2 sequence (P14555 21-144): T1 sequence (P14555 21-144)
Kind of assay: sPLA2-induced contraction of guinea pig lung pleural strips, tissue test (Assay Example 2). More on the design: species or system Male Hartley strain guinea pigs; key to transient contraction of tissue during test: *: indicates transient contraction of tissue during test. The settings on record: for transient contraction of tissue during test: footnote * of Table 2; for inhibition at 30 µM / inhibition at 10 µM: guinea pig, sPLA2 10 ug/ml; for inhibition at 30 µM: compound concentration 30 uM, read-out: % suppression of sPLA2 contraction at 30 uM; for inhibition at 10 µM: compound concentration 10 uM, read-out: % suppression of sPLA2 contraction at 10 uM. The source says: Male Hartley strain guinea pigs (500-700 g) were killed by cervical dislocation and their heart and lungs removed intact and placed in aerated (95% O2 :5% CO2) Krebs buffer. Dorsal pleural strips (4×1×25 mm) were dissected from intact parenchymal segments (8×4×25 mm) cut parallel to the outer edge of the lower lung lobes. Two adjacent pleural strips, obtained from a single lobe and representing a single tissue sample, were tied at either end and independently attached to a metal support rod. One rod was attached to a Grass force-displacement transducer (Model FTO3C, product of Grass Medical Instruments Co., Quincy, Mass., USA). […] All tissues were placed in 10 ml jacketed tissue baths maintained at 37° C. The tissue baths were continuously aerated and contained a modified Krebs solution of the following composition (millimolar) NaCl, 118.2; KCl, 4.6; CaCl2.2H2 O, 2.5; MgSO4.7H2 O, 1.2; NaHCO3, 24.8; KH2 PO4, 1.0; and dextrose, 10.0. Pleural strips from the opposite lobes of the lung were used for paired experiments. […] The tissues were allowed to equilibrate for 45 min. as the bath fluid was changed periodically. Cumulative concentration-response curves: Initially tissues were challenged 3 times with KCl (40 mM) to test tissue viability and to obtain a consistent response. After recording the maximal response to KCl the tissues were washed and allowed to return to baseline before the next challenge. Cumulative concentration-response curves were obtained from pleural strips by increasing the agonist concentration (sPLA2) in the tissue bath by half-log10 increments while the previous concentration remained in contact with the tissues (Ref.1, supra.) Agonist concentration was increased after reaching the plateau of the contraction elicited by the preceding concentration. One concentration-response curve was obtained from each tissue. To minimize variability between tissues obtained from different animals, contractile responses were expressed as a percentage of the maximal response obtained with the final KCl challenge. When studying the effects of various drugs on the contractile effects of sPLA2, the compounds and their respective vehicles were added to the tissues 30 min. prior to starting the sPLA2 concentration-response curves. statistical analysis: Data from different experiments were pooled and presented as a percentage of the maximal KCl responses (mean±S.E.). To estimate the drug induced rightward shifts in the concentration response curves, the curves were analyzed simultaneously using statistical nonlinear modeling methods similar to those described by Waud (1976), Equation 26, p. 163, (Ref.2). The model includes four parameters: the maximum tissue response which was assumed the same for each curve, the ED50 for the control curve, the steepness of the curves, and the PA2, the concentration of antagonist that requires a two-fold increase in agonist to achieve an equivalent response. The Schild slope was determined to be 1, using statistical nonlinear modeling methods similar to those described by Waud (1976), Equation 27, p. 164 (Ref. 2). […] To estimate the drug-induced suppression of the maximal responses, sPLA2 responses (10 ug/ml) were determined in the absence and presence of drug, and percent suppression was calculated for each pair of tissues. Ref. 1--van Rossum, J. M.: Cumulative dose-response curves. II. Technique for the making of dose-response curves in isolated organs and the evaluation of drug parameters. Arch. Int. Pharmacodyn. Ther. 143: 299-330, 1963. Ref. 2--Waud, D.: Analysis of dose-response relationships. in Advances in General and Cellular Pharmacology […]

For the compound `CCc1c(CC(=O)NN)c2cc(OC)ccc2n1Cc1ccccc1` [Example 3, 2-Ethyl-5-methoxy-1-(phenylmethyl)-1H-indole-3-acetic acid hydrazide], the IC50 on human secreted PLA2 is 420 ± 190 nM. On sPLA2 contraction, the “transient contraction of tissue during test” value is on record as “*” and the inhibition at 30 µM was found to be 77.9 ± 4.2%.

`Cc1c(CC(=O)NN)c2ccc(-c3ccccc3)cc2n1Cc1ccccc1` [Example 57, 2-Methyl-6-phenyl-1-(phenylmethyl)-1H-indole-3-acetic acid hydrazide]: the IC50 at human secreted PLA2 worked out at 930 ± 550 nM. Also, on sPLA2 contraction, the inhibition at 30 µM was 66.3 ± 5.9%.

In the case of `COc1ccc2c(c1)c(CC(=O)NN)c(Br)n2Cc1ccccc1` [Example 44, 2-Bromo-5-methoxy-1-(phenylmethyl)-1H-indole-3-acetic acid hydrazide], the half-maximal inhibitory concentration (IC50) at human secreted PLA2 was determined as 430 ± 30 nM. Besides, the inhibition at 30 µM at sPLA2 contraction turned out to be 87.4 ± 9.3%.

In the case of `Cc1c(CC(=O)NN)c2cc(O)ccc2n1Cc1ccccc1` [Example 61, 5-Hydroxy-2-methyl-1-(phenylmethyl)-1H-indole-3-acetic acid hydrazide], the IC50 at human secreted PLA2 worked out at 1390 ± 690 nM. The inhibition at 30 µM on sPLA2 contraction came to 72.3 ± 4.5%.

Regarding `CCCc1c(CC(=O)NN)c2cc(OC)ccc2n1Cc1ccccc1` [Example 5, 5-Methoxy-1-(phenylmethyl)-2-propyl-1H-indole-3-acetic acid hydrazide], on human secreted PLA2, the IC50 is 70500 ± 2890 nM. Besides, on sPLA2 contraction, the inhibition at 30 µM was 21.2 ± 12.5%.

Turning to `Cc1c(CC(=O)NN)c2cc(C(=O)NN)ccc2n1Cc1ccccc1` [Example 70, 5-Hydrazinocarbonyl-2-methyl-1-(phenylmethyl)-1H-indole-3-acetic acid hydrazide], the IC50 at human secreted PLA2 came to 2470 ± 640 nM. Also, at sPLA2 contraction, the inhibition at 30 µM is 45.1 ± 6.8%.

Take `COc1ccc2c(c1)c(CC(=O)NN)c(Cl)n2Cc1ccccc1` [Example 43, 2-Chloro-5-methoxy-1-(phenylmethyl)-1H-indole-3-acetic acid hydrazide]: the IC50 at human secreted PLA2 is 390 ± 30 nM. For the same compound, the inhibition at 30 µM on sPLA2 contraction worked out at 91.3 ± 6%.

Turning to `COc1ccc2c(c1)c(CC(=O)NN)c(C)n2Cc1cccc(Cl)c1` [Example 18, 1-(3-Chlorophenylmethyl)-5-methoxy-2-methyl-1H-indole-3-acetic acid hydrazide], the concentration for half-maximal inhibition (IC50) on human secreted PLA2 was found to be 1020 ± 180 nM. For the same compound, on sPLA2 contraction, the “transient contraction of tissue during test” value was “*”, the inhibition at 10 µM was 70.7 ± 6.4% and the inhibition at 30 µM amounted to 98 ± 1.5%.

For the compound `COc1ccc2c(c1)c(CC(=O)NN)c(C)n2Cc1cccc(O)c1` [Example 31, 1-[(3-Hydroxyphenyl)methyl]-5-methoxy-2-methyl-1H-indole-3-acetic acid hydrazide], the half-maximal inhibitory concentration (IC50) on human secreted PLA2 was found to be 3000 ± 1400 nM. In addition, the inhibition at 30 µM on sPLA2 contraction came out at 47.5 ± 13.4%.

Take `Cc1c(CC(=O)NN)c2cc(C(=O)O)ccc2n1Cc1cccc(Cl)c1` [Example 68, 5-Carboxy-1-[(3-chlorophenyl)methyl]-2-methyl-1H-indole-3-acetic acid hydrazide]: the IC50 at human secreted PLA2 came out at 360 ± 30 nM. Moreover, at sPLA2 contraction, the inhibition at 10 µM came out at 41.2 ± 3.8% and the inhibition at 30 µM is 48 ± 7%.

As for `COc1ccc2c(c1)c(CC(=O)NN)c(C)n2Cc1ccccc1` [Example 16, 5-Methoxy-2-methyl-1-(phenylmethyl)-1H-indole-3-acetic acid hydrazide], the half-maximal inhibitory concentration (IC50) at human secreted PLA2 worked out at 860 ± 120 nM. Besides, at sPLA2 contraction, the inhibition at 10 µM is 55.2 ± 6.6% and the inhibition at 30 µM was 83.9 ± 3.2%.

Turning to `Cc1c(CC(=O)NN)c2cc(Br)ccc2n1Cc1cccc(OCc2ccccc2)c1` [Example 52, 1-[(3-Benzyloxyphenyl)methyl]-5-bromo-2-methyl-1H-indole-3-acetic acid hydrazide], the half-inhibitory concentration (IC50) at human secreted PLA2 amounted to 710 ± 340 nM. On sPLA2 contraction, the inhibition at 10 µM was found to be 37.8 ± 15.5% and the inhibition at 30 µM turned out to be 29.1 ± 7%.

Regarding `COc1ccc2c(c1)c(CC(=O)NN)c(C)n2Cc1cccc(-c2ccccc2)c1` [Example 25, 1-([1,1'-Biphenyl]-3-ylmethyl)-5-methoxy-2-methyl-1H-indole-3-acetic acid hydrazide], the IC50 on human secreted PLA2 was determined as 940 ± 330 nM. In addition, on sPLA2 contraction, the inhibition at 30 µM is 7.3 ± 9.9%.

By IC50 is commonly meant the concentration that inhibits the measured activity by half.

Source of the values: patent US5578634A, “1H-indole-3-acetic acid hydrazide sPLA2 inhibitors” (Eli Lilly and Company, priority 1995, dated 1996).
